# From patent US6432969B1, “N-(substituted glycyl)-2 cyanopyrrolidines, pharmaceutical compositions containing them and their use in inhibiting dipeptidyl peptidase-IV” (Novartis AG, priority 2000, dated 2002)
# How the values were obtained:
# [1] = biological target: T1, DPP-IV activity in human plasma (Homo sapiens, UniProt P27487); test: Human plasma DPP-IV assay; format: biochemical; conditions: substrate H-Gly-Pro-AMC
# T1 construct: from tissue; host or cells: human plasma
# Protocol: (§1) Briefly, 5 μl of plasma are added to 96-well flat-bottom micortiter plates (Falcon), followed by the addition of 5 μl of 80 mM MgCl2 in incubation buffer (25 mMHEPES, 140 mM NaCl, 1% RIA-grade BSA, pH 7.8). After a 60 min. incubation at room temperature, the reaction is initiated by the addition of 10 μl of incubation buffer containing 0.1 mM substrate (H-Glycine-Proline-AMC; AMC is 7-amino 4-methylcoumarin). The plates are covered with aluminum foil (or kept in the dark) and incubated at room temperature for 20 min. […] A fluorescence-concentration curve of free AMC is generated using 0-50 μM solutions of AMC in assay buffer. The curve generated is linear and is used for interpolation of substrate consumption (catalytic activity in nmoles substrate cleaved/min). As with the previous assay, the potency of the test compounds as DPP-IV inhibitors, expressed as IC50, is calculated from 8-point, dose-response curves using a 4 parameter logistic function.
# [2] = biological target: T2, DPP-IV activity in rat plasma (Rattus norvegicus, UniProt P14740); test: Rat plasma DPP-IV assay; format: biochemical; conditions: substrate H-Gly-Pro-AMC
# T2 construct: from tissue; host or cells: rat plasma
# Protocol: as §1
# [3] = biological target: T3, DPP-IV activity from human colonic carcinoma cell (Caco-2) extracts (Homo sapiens, UniProt P27487); test: Caco-2 DPP-IV Assay; format: biochemical; conditions: Caco-2 cell extract, substrate H-Ala-Pro-pNA, 8-point dose-response
# T3 construct: Cell extract is prepared from cells solubilized in 10 mM Tris HCl; host or cells: Caco-2, differentiated to induce DPP-IV expression
# Protocol: The human colonic carcinoma cell line Caco-2 was obtained from the American Type Culture Collection (ATCC HTB 37). Differentiation of the cells to induce DPP-IV expression was accomplished as described by Reisher, et al. in an article entitled “Increased expression of intestinal cell line Caco-2” in Proc. Natl. Acad. Sci., Vol. 90, pgs. […] Cell extract is prepared from cells solubilized in 10 mM Tris HCl, 0.15 M NaCl, 0.04 t.i.u.aprotinin, 0.5% nonidet-P40, pH 8.0, which is centrifuged at 35,000 g for 30 min. at 4° C. to remove cell debris. The assay is conducted by adding 20 μg solubilized Caco-2 protein, diluted to a final volume of 125 μl in assay buffer (25 mM Tris HCl pH 7.4, 140 mM NaCl, 10 mM KCl, 1% bovine serum albumin) to microtiter plate wells. After a 60 min. incubation at room temperature, the reaction is initiated by adding 25 μl of 1 mM substrate (H-Alanine-Proline-pNA; pNA is p-nitroaniline). […] A standard curve of free p-nitroaniline is generated using 0-500 μM solutions of free pNA in assay buffer. The curve generated is linear and is used for interpolation of substrate consumption (catalytic activity in nmoles substrate cleaved/min).
# The potency of the test compounds as DPP-IV inhibitors, expressed as IC50, is calculated from 8-point, dose-response curves using a 4-parameter logistic function.
# T3 sequence (P27487 whole entry): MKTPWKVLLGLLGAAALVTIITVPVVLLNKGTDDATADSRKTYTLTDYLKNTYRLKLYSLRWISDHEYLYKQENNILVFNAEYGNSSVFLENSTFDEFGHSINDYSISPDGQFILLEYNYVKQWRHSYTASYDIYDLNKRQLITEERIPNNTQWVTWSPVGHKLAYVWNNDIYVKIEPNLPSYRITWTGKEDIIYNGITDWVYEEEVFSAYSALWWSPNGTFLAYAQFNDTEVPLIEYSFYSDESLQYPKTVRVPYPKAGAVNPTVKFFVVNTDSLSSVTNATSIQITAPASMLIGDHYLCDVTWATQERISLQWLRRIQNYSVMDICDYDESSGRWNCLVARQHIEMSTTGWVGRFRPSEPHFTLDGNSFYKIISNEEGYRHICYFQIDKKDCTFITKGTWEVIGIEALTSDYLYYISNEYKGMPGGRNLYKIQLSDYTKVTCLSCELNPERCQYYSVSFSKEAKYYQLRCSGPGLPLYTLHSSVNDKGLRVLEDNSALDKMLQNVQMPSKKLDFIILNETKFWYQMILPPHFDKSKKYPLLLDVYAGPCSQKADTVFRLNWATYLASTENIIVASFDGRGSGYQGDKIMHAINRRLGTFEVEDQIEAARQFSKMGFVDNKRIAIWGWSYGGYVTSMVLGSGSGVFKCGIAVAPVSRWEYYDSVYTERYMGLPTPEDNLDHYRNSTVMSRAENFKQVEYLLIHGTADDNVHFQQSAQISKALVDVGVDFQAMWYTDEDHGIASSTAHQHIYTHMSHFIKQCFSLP
# T2 sequence (P14740 38-767 limits assumed): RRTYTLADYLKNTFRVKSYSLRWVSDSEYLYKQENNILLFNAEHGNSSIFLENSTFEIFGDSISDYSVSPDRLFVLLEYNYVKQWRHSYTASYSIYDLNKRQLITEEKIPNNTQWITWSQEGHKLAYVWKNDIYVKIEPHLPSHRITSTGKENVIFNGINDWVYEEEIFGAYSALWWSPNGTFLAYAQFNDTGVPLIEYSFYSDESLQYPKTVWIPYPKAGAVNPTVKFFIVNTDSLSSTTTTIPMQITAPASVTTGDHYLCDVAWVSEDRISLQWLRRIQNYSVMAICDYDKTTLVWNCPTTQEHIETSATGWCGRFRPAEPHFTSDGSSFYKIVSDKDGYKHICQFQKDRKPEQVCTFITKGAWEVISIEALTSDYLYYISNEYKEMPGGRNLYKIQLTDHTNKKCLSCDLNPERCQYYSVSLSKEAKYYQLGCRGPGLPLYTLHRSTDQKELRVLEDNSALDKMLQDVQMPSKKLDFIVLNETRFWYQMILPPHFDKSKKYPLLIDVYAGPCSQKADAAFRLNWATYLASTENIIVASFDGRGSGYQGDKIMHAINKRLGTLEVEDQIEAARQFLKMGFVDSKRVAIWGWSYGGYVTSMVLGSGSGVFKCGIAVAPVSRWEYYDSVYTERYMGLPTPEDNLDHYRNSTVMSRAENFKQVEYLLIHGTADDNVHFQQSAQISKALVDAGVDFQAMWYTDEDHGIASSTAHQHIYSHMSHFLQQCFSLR
# T1 sequence (P27487 39-766 limits assumed): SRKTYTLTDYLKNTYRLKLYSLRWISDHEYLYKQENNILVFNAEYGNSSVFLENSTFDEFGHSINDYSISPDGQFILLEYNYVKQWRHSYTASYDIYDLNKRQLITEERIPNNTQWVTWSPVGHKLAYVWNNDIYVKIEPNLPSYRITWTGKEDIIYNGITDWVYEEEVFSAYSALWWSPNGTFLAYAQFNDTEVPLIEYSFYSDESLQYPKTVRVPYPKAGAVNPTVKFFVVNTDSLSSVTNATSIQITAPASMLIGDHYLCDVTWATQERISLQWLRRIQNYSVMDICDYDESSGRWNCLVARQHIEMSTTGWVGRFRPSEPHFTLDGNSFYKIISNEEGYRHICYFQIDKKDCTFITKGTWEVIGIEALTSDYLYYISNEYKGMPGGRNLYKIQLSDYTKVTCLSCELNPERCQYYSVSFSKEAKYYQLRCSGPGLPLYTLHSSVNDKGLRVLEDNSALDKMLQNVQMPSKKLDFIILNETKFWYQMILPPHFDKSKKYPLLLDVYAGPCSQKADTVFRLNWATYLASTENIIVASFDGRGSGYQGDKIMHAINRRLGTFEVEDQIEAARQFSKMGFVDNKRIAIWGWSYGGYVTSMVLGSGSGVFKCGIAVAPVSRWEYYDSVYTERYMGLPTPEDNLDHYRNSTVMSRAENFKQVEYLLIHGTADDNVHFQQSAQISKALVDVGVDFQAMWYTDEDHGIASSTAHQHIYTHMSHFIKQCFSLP
SMILES,IC50 [1],IC50 [2],IC50 [3],melting point
N#C[C@@H]1CCCN1C(=O)CN[C@H]1CC[C@H](Oc2cccc(Cl)c2)CC1 [Ex. 2HH],18 nM,10 nM,18 nM,
"CC(C)(CNc1ncccc1C(F)(F)F)NCC(=O)N1CCC[C@H]1C#N [Ex. 2G, 1-[[[2-[(3-trifluoromethyl-2-pyridinyl)amino]-1,1-dimethylethyl]amino]acetyl]-2-cyano-(S)-pyrrolidine]",,111 nM,,
"N#C[C@@H]1CCCN1C(=O)CN[C@H]1CC[C@H](NC(=O)c2ccc(Cl)cc2)CC1 [Ex. 2T, 1-[[[4-[(4-chlorobenzoyl)amino]cyclohexyl]amino]acetyl]-2-cyano-, (S)-pyrrolidine]",26 nM,37 nM,31 nM,
"N#C[C@@H]1CCCN1C(=O)CN[C@H]1CC[C@H](NS(=O)(=O)c2ccc(C(F)(F)F)cc2)CC1 [Ex. 2Z, 1-[[[4-[[[(4-trifluoromethyl)phenyl]sulfonyl]amino]cyclohexyl]amino]acetyl]-2-cyano-(S)-pyrrolidine]",122 nM,88 nM,66 nM,
N#C[C@@H]1CCCN1C(=O)CN[C@H]1CC[C@H](NS(=O)(=O)c2cccs2)CC1 [Ex. 2AA],33 nM,16 nM,56 nM,
"N#C[C@@H]1CCCN1C(=O)CN[C@H]1CC[C@H](Oc2cccc(C(F)(F)F)c2)CC1 [Ex. 2GG, 1-[[[4-[(3-trifluoromethyl)phenoxy]cyclohexyl]amino]acetyl]-2-cyano-(S)-pyrrolidine]",20 nM,10 nM,22 nM,
"CC(C)(CNC(=O)Nc1ccc(Cl)cc1)NCC(=O)N1CCC[C@H]1C#N [Ex. 2K, 1-[[[2-[[[(4-chlorophenyl)amino]carbonyl]amino]-1,1-dimethylethyl]amino]acetyl]-2-cyano-(S)-pyrrolidine]",305 nM,38 nM,56 nM,
CC(C)(Cc1ccc(F)cc1)NCC(=O)N1CCC[C@H]1C#N [Ex. 2BB],38 nM,13 nM,19 nM,
"CC(C)(CNc1ccc(C(F)(F)F)cn1)NCC(=O)N1CCC[C@H]1C#N [Ex. 2B, 1-[[[2-[(5-trifluoromethyl-2-pyridinyl)amino]-1,1-dimethylethyl]amino]acetyl]-2-cyano-(S)-pyrrolidine]",59 nM,11 nM,5 nM,
N#C[C@@H]1CCCN1C(=O)CNC1CCN(C(=O)c2ccc(Cl)cc2)CC1 [Ex. 4B],77 nM,31 nM,35 nM,
"CC(C)(CNc1cc(C(F)(F)F)ccn1)NCC(=O)N1CCC[C@H]1C#N [Ex. 2E, 1-[[[2-[(4-trifluoromethyl-2-pyridinyl)amino]-1,1-dimethylethyl]amino]acetyl]-2-cyano-(S)-pyrrolidine]",27 nM,19 nM,27 nM,38 to 40 °C
"CC(C)(CNC(=O)c1ccc(Cl)cc1)NCC(=O)N1CCC[C@H]1C#N [Ex. 2I, 1-[[[2-[(4-chlorobenzoyl)amino]-1,1-dimethylethyl]amino]acetyl]-2-cyano-(S)-pyrrolidine]",73 nM,31 nM,80 nM,
"CC(C)(CNc1ncc(Cl)cc1Cl)NCC(=O)N1CCC[C@H]1C#N [Ex. 2F, 1-[[[2-[(3,5-dichloro-2-pyridinyl)amino]-1,1-dimethylethyl]amino]acetyl]-2-cyano-(S)-pyrrolidine]",46 nM,37 nM,45 nM,
"N#C[C@@H]1CCCN1C(=O)CNC1CCN(c2nc(-c3ccccc3)cs2)CC1 [Ex. 2KK, 1-[[[1-(4-phenyl-2-thiazolyl)-4-piperidinyl]amino]acetyl]-2-cyano-(S)-pyrrolidine]",38 nM,12 nM,28 nM,141 to 143 °C
"N#C[C@@H]1CCCN1C(=O)CN[C@H]1CC[C@H](Nc2nccc(C(F)(F)F)n2)CC1 [Ex. 2O, 1-[[[4-[[(4-trifluoromethyl)-2-pyrimidinyl]amino]cyclohexyl]amino]acetyl]-2-cyano-(S)-pyrrolidine]",8 nM,9 nM,8 nM,
"N#C[C@@H]1CCCN1C(=O)CNC1CCN(S(=O)(=O)c2ccccc2)CC1 [Ex. 4D, 1-[[(1-phenylsulfonyl-4-piperidinyl)amino]acetyl]-2-cyano-(S)-pyrrolidine]",104 nM,59 nM,114 nM,
"N#C[C@@H]1CCCN1C(=O)CNC1CCN(C(=O)Nc2ccc(Cl)cc2)CC1 [Ex. 2II, 1-[[[1-[[(4-chlorophenyl)amino]carbonyl]-4-piperidinyl]amino]acetyl]-2-cyano-(S)-pyrrolidine]",37 nM,12 nM,44 nM,
"CCCCCC12CCC(NCC(=O)N3CCC[C@H]3C#N)(CC1)CC2 [Ex. 2DD, 1-[[(4-pentylbicyclo[2.2.2]oct-1-yl)amino]acetyl]-2-cyano-(S)-pyrrolidine]",66 nM,38 nM,156 nM,
"N#C[C@@H]1CCCN1C(=O)CN[C@H]1CC[C@H](Nc2ncccc2C(F)(F)F)CC1 [Ex. 2P, 1-[[4-[[(3-trifluoromethyl-2-pyridinyl)amino]cyclohexyl]amino]acetyl]-2-cyano-(S)-pyrrolidine]",16 nM,11 nM,15 nM,
N#C[C@@H]1CCCN1C(=O)CNC1CCN(S(=O)(=O)c2ccc(C(F)(F)F)cc2)CC1 [Ex. 4C],68 nM,48 nM,83 nM,
N#C[C@@H]1CCCN1C(=O)CNC1CCN(c2nc(-c3ccc(Cl)cc3)cs2)CC1 [Ex. 2LL],649 nM,123 nM,61 nM,
"Cc1ccc(C(=O)NCC(C)(C)NCC(=O)N2CCC[C@H]2C#N)cc1 [Ex. 2C, 1-[[[2-[(4-methylbenzoyl)amino]-1,1-dimethylethyl]amino]acetyl]-2-cyano-(S)pyrrolidine]",50 nM,25 nM,99 nM,40 to 42 °C
"CC(C)(CNc1ncccc1Cl)NCC(=O)N1CCC[C@H]1C#N [Ex. 2D, 1-[[[2-[(3-chloro-2-pyridinyl)amino]-1,1-dimethylethyl]amino]acetyl]-2-cyano-(S)-pyrrolidine]",93 nM,71 nM,44 nM,
N#C[C@@H]1CCCN1C(=O)CN[C@H]1CC[C@H](NC(=O)c2ccc(F)cc2)CC1 [Ex. 5],5 nM,4 nM,36 nM,
"CC(C)N(C(=O)NCC(C)(C)NCC(=O)N1CCC[C@H]1C#N)C(C)C [Ex. 2J, 1-[[[2-[[(diisopropylamino)carbonyl]amino]-1,1-dimethylethyl]amino]acetyl]-2-cyano-(S)-pyrrolidine]",421 nM,49 nM,41 nM,
"CC(C)N(C(=O)N1CCC(NCC(=O)N2CCC[C@H]2C#N)CC1)C(C)C [Ex. 2JJ, 1-[[[1-[(diisopropylamino)carbonyl]-4-piperidinyl]amino]acetyl]-2-cyano-(S)-pyrrolidine]",45 nM,5 nM,94 nM,
COc1ccc(-c2csc(N3CCC(NCC(=O)N4CCC[C@H]4C#N)CC3)n2)cc1 [Ex. 2MM],71 nM,58 nM,22 nM,
"N#C[C@@H]1CCCN1C(=O)CN[C@H]1CC[C@H](NS(=O)(=O)c2ccc(Cl)cc2)CC1 [Ex. 2Q, 1-[[[[4-[(4-chlorophenyl)sulfonyl]amino]cyclohexyl]amino]acetyl]-2-cyano-(S)-pyrrolidine]",38 nM,38 nM,30 nM,
